Source: US20060129385A1, “Cholinergic therapy for individuals with learning disabilities” (priority 2002, published 2006)

Tests used:
[1] = test system: individuals with Down's Syndrome; assay: Test of Problem Solving (TOPS), 24 week open study of donepezil; assay type: in vivo, human
Method: (§1) In the current study, we specifically examined the effects of donepezil and tested the hypothesis that expressive language performance in individuals with Down's Syndrome would improve with donepezil treatment. Language performance was measured with two objective measures, the Test of Problem Solving [Zachman et al., 1984] and the Clinical Evaluation of Language Fundamentals-Revised [Semel et al., 1986].
Measures: The Test of Problem Solving [TOPS: Zachman et al., 1984]: The TOPS is an expressive language test that measures the ability to verbally identify reasonable solutions to problems presented via pictures. It has been used to assess pragmatic language ability in patients with AD. [Ripich et al., 1997]. The TOPS consists of 15 pictured scenarios with accompanying questions about each picture. The standard set of questions is designed to have the subject make inferences, to determine causes of particular events, to determine solutions to pictured problems, and to determine strategies for avoiding problems. The instrument was standardized on 1578 individuals (ages 6 years-0 months to 11 years-11 months). Age equivalent scores are provided for ages 3 years-5 months to 15 years-9 months. Validity and reliability data are available. TOPS raw scores for the overall [test as recommended by Powell, 1993] were determined by the average of two independent observers, one scoring onsite and a second scoring from audiotaped recordings of the test sessions.
(§2) Derivation of Language Level: Due to the absence of appropriate standardized measures for adults with DS, relative language level was determined by comparing subtest performance (raw scores) to the average performance level for five-year-olds. The five year-old level was selected because it is the lowest age level in which both tests provide normative data. For this study, TOPS performance was based on age equivalent scores.
(§3) Clinical Significance of Change: The clinical significance of the change in language performance following treatment was determined by comparing the difference in subject performance (between Baseline and treatment) to the amount of language improvement shown in one year by the average 5-year-old. For the TOPS, this index was the difference between the age equivalent score for children aged 5 years-0 months and the age equivalent score for children aged 6 years-0 months. For the CELF-R subtests, this index was difference between the mean raw scores for 5 year-olds and 6-year-olds.
Statistical Analyses: The main comparisons were changes from Baseline (week 0) assessed by repeated measures. […] Similarly, while we hypothesized an improvement in expressive language, the acceptable p-value was not adjusted to reflect a one-tailed analysis. P-values at or below 0.05 were viewed as significant. Changes on standardized measures were viewed as clinically significant if the magnitude of the observed change was substantial in comparison to the level of performance gain typically achieved by children in the 12 month period between age 5 and age 6. Across all measures, the performance gain between age 5 and age 6 is the highest rate of language gain recorded for any 12-month period.

DS patients = conditions: human, in vivo; cited from earlier work
[2] = test system: individuals with Down's Syndrome; assay: Clinical Evaluation of Language Fundamentals-Revised (CELF-R), 24 week open study of donepezil; assay type: in vivo, human
Method: as §1
The Clinical Evaluation of Language Fundamentals-Revised (CELF-R: Semel et al., 1986]: The CELF-R is a diagnostic language test designed to assess language form and content, aspects of language generally regarded as fundamental to effective, oral—communication. Standardized expressive, receptive and overall language scores are derived from the summation of individual subtest scores. Typically, overall expressive and receptive language are evaluated by collapsing the subtest performance into a single receptive: or expressive language score. Individual subtest performance is analyzed for specific impairment within the broader expressive and receptive language domains. The instrument was standardized on 2,333 individuals (ages 5-0 to 16-11). Validity and reliability norms are available and adequate for each subtest.
as §2, §3
Statistical Analyses: The main comparisons were changes from Baseline (week 0) assessed by repeated measures. […] Similarly, while we hypothesized an improvement in expressive language, the acceptable p-value was not adjusted to reflect a one-tailed analysis. P-values at or below 0.05 were viewed as significant. […] Across all measures, the performance gain between age 5 and age 6 is the highest rate of language gain recorded for any 12-month period.

[3] = test system: individuals with Down's Syndrome
Method: Subjects: After obtaining IRB approval and written informed consent, 5 males and […] with DS (confirmed by karyotyping), between the ages of 20-41 years (mean age=29 years), were enrolled in the trial. All subjects were verbal, able to hear speech at conversational level, and able to ingest oral medication. […] All individuals were evaluated for thyroid disorders and for Vitamin B 12 deficiency within 6 months of entry into the trial. […] Subject IQs ranged from 40 to 60 (mean IQ=52). The IQs of four subjects were determined during the baseline visit because testing had not been performed in the last 10 years. The IQ's of the two youngest subjects were determined from school records.
Study Design: This was a 24 week open study at the General Clinical Outpatient Research Unit at Duke University in which subjects attended three sessions, Week 0 (Baseline), Week 12 (Treatment-12), and Week 24 (Termination). Due to scheduling limitations, the average first post-treatment visit was at Week 13 and the second post-treatment visit was at Week 25. A physical exam and language testing were completed at all sessions. A checklist for medication related adverse events was performed at Week 12 and at study termination. At the completion of the Baseline visit, donepezil was dosed orally at 5 mg once daily for 6 weeks. The dose was increased to 10 mg (two 5 mg tablets) daily for the remaining weeks if the 5 mg dose was well tolerated. This dosage schedule was based on experience from a previous trial [Kishnani et al 1999] and the donepezil package insert. Patients were monitored closely for safety and tolerability of the medication by regular phone calls in between scheduled visits. Two language measures were used, the Test of Problem Solving (TOPS) and the Clinical Evaluation of Language Fundamentals-Revised (CELF-R). The TOPS was completed at Baseline and at Weeks 12 and 24 of treatment. The CELF-R was completed at Baseline and at Week 24.

COc1cc2c(cc1OC)C(=O)C(CC1CCN(Cc3ccccc3)CC1)C2 (stereo not shown) [donepezil]
change in TOPS performance, Treatment-12 weeks vs. Termination ([1]; after 12 additional weeks of treatment (24 weeks), paired samples t=0.52, p=0.6313): No change | overall TOPS performance gain ([1]; after 12 weeks of treatment vs Baseline, oral 5 mg once daily for 6 weeks, then 10 mg daily, adults with DS, paired t=4.5, p=0.0107): 6.5 | overall TOPS performance gain ([1]; after 24 weeks of treatment (Termination) vs Baseline, oral 5 mg then 10 mg daily, paired t=1.10, p=0.0513): 5.1 | clinical significance: overall TOPS performance gain relative to gain expected by the average five-year-old in one year of development ([1]; after treatment): more than one-half | performance on the TOPS, Baseline vs. Treatment-12 weeks ([1]; following 12 weeks of treatment, paired samples t=4.5, p=0.0107): significantly improved performance | adverse effect reported in DS patients (DS patients): urinary incontinence | CELF-R subtests showing gains ([2]; following 24 weeks of donepezil treatment, n=5): 5 of 6 | significance of CELF-R subtest differences from baseline levels ([2]; following 24 weeks of treatment, p=0.15-0.23 in three expressive subtests and Word Classes): None of the differences was significantly different | gain in language performance on the CELF-R subtests, High Language Group ([2]; individuals with higher language skills at Baseline, n=2, following treatment): large gains | gain on the CELF-R language measures, Low Language Group ([2]; individuals with lower language skills at Baseline, n=3, following treatment): little gain | subjects with mild cases of diarrhea ([3]; at the 5 mg dosage, each case improved spontaneously): Five of six subjects | subjects reporting a transient decrease in appetite ([3]; on the 10 mg dosage, six subjects): one subject | subjects reporting cramps for one day ([3]; six subjects): One subject
